Reference: patent US20130217721A1, “COMPOSITIONS AND METHODS FOR DETECTION AND TREATMENT OF B-RAF INHIBITOR-RESISTANT MELANOMAS” (The Regents of the University of California, priority 2010, published 2013)

Legend:
[1] = tested on: M395 R; assay: Cell survival assay (72 h); type: cell-based, human; conditions: M395 R (V600EB-RAF amplification-driven), 72 h
Source text: (§1) Cell culture, infections and drug treatments. Cells were maintained in DMEM with 10 or 20% fetal bovine serum and glutamine. shRNAs for B-RAF and C-RAF were sub-cloned into the lentiviral vector pLL3.7; pBabe B-RAF (V600E) was purchase (plasmid 17544, Addgene); viral supernatants generated by co-transfection with three packaging plasm ids into HEK293T cells; and infections carried out with protamine sulfate. Stocks and dilutions of PLX4032 (Plexxikon, Berkeley, Calif.) and AZD6244 (commercially available) were made in DMSO. Cells were quantified using CellTiter-GLO Luminescence (Promega) or crystal violet staining followed by NIH Image J quantification.

[2] = tested on: M229 R sub-lines (M229 R5); assay: Cell survival / proliferation assay (72 h); type: cell-based, human; conditions: M229 R5, 72 h, PLX4032-resistant cells grown with PLX4032
Procedure: (§2) Cells were maintained in Dulbecco's modified Eagle medium (DMEM) with 10 or 20% fetal bovine serum and glutamine. shRNAs were sub-cloned into the lentiviral vector pLL3.7 and infections carried out with protamine sulphate. Stocks of PLX4032 (Plexxikon) and AZD6244 (commercially available) were made in DMSO. Cells were quantified using CellTiter-GLO Luminescence (Promega).
(§3) Cell proliferation experiments were performed in a 96-well format (five replicates), and baseline quantification performed at 24 h after cell seeding along with initiation of drug treatments (72 h). Stocks and dilutions of PLX4032 (Plexxikon), AZD6244 (Selleck Chemicals) and U0126 (Promega) were made in DMSO. siRNA pool (Dharmacon) transfections were carried out in 384-well format. TransIT transfection reagent (Mirus) was added to each well and incubated at 37° C. for 20 min. Subsequently, cells were reverse transfected, and the mixture was incubated for 51-61 h at 37° C. Cells were quantified using CellTiter 96 Aqueous One Solution (Promega) or CellTiter-GLO Luminescence (Promega) following the manufacturer's recommendations.

[3] = tested on: Pt48 R short-term culture; assay: Cell survival / proliferation assay (72 h); type: cell-based, human; conditions: for growth sensitivity to inhibitor: 72 h, PLX4032-resistant cells grown with PLX4032
Procedure: as §2, §3

[4] = tested on: Pt55 R short-term culture; assay: Cell survival / proliferation assay (72 h); type: cell-based, human; conditions: for growth sensitivity to MEK inhibition: 72 h, in the presence or absence of PLX4032
Procedure: as §2, §3

[5] = tested on: M238 R sub-lines (M238 R1); assay: Cell survival / proliferation assay (72 h); type: cell-based, human; conditions: M238 R1, 72 h, PLX4032-resistant cells grown with PLX4032
Procedure: as §2, §3

[6] = tested on: M249 R sub-line (M249 R4); assay: Cell survival / proliferation assay (72 h); type: cell-based, human; conditions: for growth sensitivity to MEK inhibition: M249 R4, 72 h, in the presence or absence of PLX4032
Procedure: as §2, §3, §1

[7] = tested on: SKMEL-239 PLX4032-resistant clones C1-5; assay: Proliferation assay of PLX4032-resistant clones; type: cell-based, human; conditions: all five resistant clones, albeit at slightly higher doses
Procedure: Cell proliferation and cell cycle analysis. All melanoma cell lines were generated by A. Houghton (MSKCC) or obtained from ATCC. 293H cells were obtained from Invitrogen. Cells were maintained in DMEM (293H and MEFs), or RPMI (all other cell lines) supplemented with 2 mM glutamine, antibiotics and 10% fetal bovine serum. We confirmed by DNA fingerprinting^20 that all PLX4032-resistant, SKMEL-239 clones were derived from the same patient, thus excluding the possibility of contamination (Table 6). For proliferation assays, cells were plated in 6 well plates and 24 hours later were treated with varying concentrations of inhibitors as indicated. IC50 values were calculated using Graph Pad Prism v.5. For cell cycle and apoptosis studies, cells were seeded in 6 well dishes the day prior to drug treatment. For analysis, both adherent and floating cells were harvested and stained with ethidium bromide as described previously^21.

[8] = biological target: T1, V5-tagged p61 BRAF(V600E/R509H) (human, UniProt P15056 1-766); assay: co-immunoprecipitation of FLAG- and V5-tagged forms from 293H cells
T1 construct: domain: splice variant lacking exons 4-8 (554 amino acids); Co-expressed with the FLAG-tagged form in 293H cells; also called dimerization mutant p61 BRAF(V600E/R509H); not shown: V5 tag

## Cn1cnc2c(F)c(Nc3ccc(Br)cc3Cl)c(C(=O)NOCCO)cc21 [AZD6244]
[1]
  proliferation under MEKi treatment: decreased proliferation
[2]
  growth sensitivity to inhibitor: highly resistant
[3]
  growth sensitivity to inhibitor: highly resistant
[4]
  growth sensitivity to MEK inhibition: sensitive
[5]
  growth sensitivity to inhibitor: highly resistant
[6]; M249 R4 (Q61KN-RAS-driven), 72 h
  proliferation under MEKi treatment: decreased proliferation
[6]
  growth sensitivity to MEK inhibition: sensitive

## O=C(NOC[C@H](O)CO)c1ccc(F)c(F)c1Nc1ccc(I)cc1F [PD0325901]
[7]
  sensitivity to the MEK inhibitor: retained sensitivity

## CCCS(=O)(=O)Nc1ccc(F)c(C(=O)c2c[nH]c3ncc(Cl)cc23)c1F [PLX4720]
[3]
  growth resistance to B-RAF inhibitor: resistance
[4]
  growth resistance to B-RAF inhibitor: resistance

## N#CC(=C(/N)Sc1ccccc1N)/C(C#N)=C(\N)Sc1ccccc1N [U0126]
[2]
  growth sensitivity to inhibitor: highly resistant
[3]
  growth sensitivity to inhibitor: highly resistant
[4]
  growth sensitivity to MEK inhibition: sensitive
[5]
  growth sensitivity to inhibitor: highly resistant
[6]
  growth sensitivity to MEK inhibition: sensitive

B1: FLAG-tagged p61 BRAF(V600E/R509H) (enzyme, human, UniProt P15056 1-766, looked up)
chain: MAALSGGGGGGAEPGQALFNGDMEPEAGAGAGAAASSAADPAIPEEVWNIKQMIKLTQEHIEALLDKFGGEHNPPSIYLEAYEEYTSKLDALQQREQQLLESLGNGTDFSVSSSASMDTVTSSSSSSLSVLPSSLSVFQNPTDVARSNPKSPQKPIVRVFLPNKQRTVDLIRDQGFRGDGGSTTGLSATPPASLPGSLTNVKALQKSPGPQRERKSSSSSEDRNRMKTLGRRDSSDDWEIPDGQITVGQRIGSGSFGTVYKGKWHGDVAVKMLNVTAPTPQQLQAFKNEVGVLRKTHHVNILLFMGYSTKPQLAIVTQWCEGSSLYHHLHIIETKFEMIKLIDIARQTAQGMDYLHAKSIIHRDLKSNNIFLHEDLTVKIGDFGLATEKSRWSGSHQFEQLSGSILWMAPEVIRMQDKNPYSFQSDVYAFGIVLYELMTGQLPYSNINNRDQIIFMVGRGYLSPDLSKVRSNCPKAMKRLMAECLKKKRDERPLFPQILASIELLARSLPKIHRSASEPSLNRAGFQTEDFSLYACASPKTPIQAGGYGAFPVH
notes: domain: splice variant lacking exons 4-8 (554 amino acids); Expressed in 293H cells; immunoprecipitated with FLAG antibody; also called dimerization-deficient mutant; not shown: FLAG tag
[8]
  binding result: no binding
